Reference: patent publication US20070270413A1, “Mirtazapine for the treatment of neuropathic pain” (N.V. Organon, priority 2006, published 2007)

Tests used:
[1] = tested on: mechanical allodynia induced by ligation of the L5 spinal nerve; experiment: Chung neuropathic model: mechanical allodynia, paw withdrawal threshold to von Frey filaments; type: in vivo, rat
Excerpt: The Chung Neuropathic Model is an animal model of neuropathic pain. Animals with tight ligation of the L5 spinal nerve develop hyperalgesia and allodynia that can be measured using standard behavioural paradigms. Chung surgery: animals were anaesthetized with isoflurane administered in oxygen. Under sterile conditions, a longitudinal incision (about 5 mm lateral from the midline) was made at the lower lumbar-sacral level, exposing the paraspinal muscles on the left. The paraspinal muscles were then isolated and removed from the L4 spinous process to the sacrum using small blunt scissors. This opened up the space ventrolateral to the articular processes, dorsal to the L6 transverse process, and medial to the ileum. Small roungers were used to remove the L6 transverse process as completely as possible. The L5 spinal nerve was then isolated and tightly ligated. Upon completion of the operation, haemostasis was confirmed and the wound closed in layers using silk sutures and metal clips. Anaesthesia was then discontinued. Animals were kept in a cage with warm bedding until they had completely recovered from anaesthesia. The rats' withdrawal threshold to a mechanical stimulus (calibrated von Frey filaments) was measured (baseline reading). Rats were placed on an elevated (˜40 cm) mesh floor in Perspex boxes and filaments of increasing force (2.6-167 mN) were applied to the plantar surface of the paw using an up and down method (Chaplan et al., 1994). The paw was touched with one of a series of 8 von Frey hairs with logarithmically incremental stiffness. The von Frey hair was presented perpendicular to the plantar surface with sufficient force to cause buckling against the paw, and held for approximately 1-3 seconds. A positive response was noted if the paw was sharply withdrawn. A cut-off of 15 g was selected as the upper limit for testing, since stiffer hairs tend to raise the entire limb rather than buckling, substantially changing the nature of the stimulus. […] Data were expressed as mean±s.e.m. and compared between groups using the Kruskal-Wallis one-way analysis of variance, a non-parametric statistical test. Each of the treatment groups were then compared against the vehicle group, using the non-parametric Dunn's test. The time of maximum effect (Tmax) was calculated.

[2] = tested on: mechanical allodynia induced by ligation of the L5 spinal nerve; experiment: as above; type: in vivo, rat; details: 10 and 30 μmol/kg, 40 min after administration, P<0.05 vs vehicle (Mann Whitney)
[3] = Side effects observed after s.c. dosing in the Chung neuropathic model
Protocol: Following baseline measurements each animal was anaesthetised and the L5 spinal nerve tightly ligated. The animals were allowed to recover from the surgery for a period of at least five days. On the day of drug administration, the paw withdrawal thresholds were re-measured (0 min). […] Readings were then made at regular intervals after compound injection.

In the case of R-mirtazapine [reference compound], the Tmax (time of maximum effect) ([1]; 10 μmol/kg s.c., Table 2) is reported as 0.5 h, the Tmax (time of maximum effect) ([1]; 30 μmol/kg s.c., Table 2) is reported as 0.5 h and the Tmax (time of maximum effect) ([1]; 100 μmol/kg s.c., Table 2) is reported as 0.5 h. For the same molecule, the “Effect on mechanical allodynia” value ([1]; 10-100 μmol/kg s.c., free base) was “no effect” and the Anti-allodynic activity ([1]; doses up to 100 μmol/kg s.c.) was “no effect”.

In the case of `CN1CCN2c3ncccc3Cc3ccccc3C2C1` (racemic) [Racemic mirtazapine, mirtazapine], the Withdrawal threshold [2] is reported as “up to 4 g” and the “Effect on withdrawal threshold” value ([1]; 10 and 30 μmol/kg, 40 min after administration, not dose-dependent) is reported as “small but significant effect”.

Work on `CN1CCN2c3ncccc3Cc3ccccc3[C@H]2C1` [S(+)-mirtazapine] yielded a Tmax (time of maximum effect) ([1]; 0.3 μmol/kg s.c.) of 1 h, a Tmax (time of maximum effect) ([1]; 3 μmol/kg s.c.) of 1 h and a Tmax (time of maximum effect) ([1]; 30 μmol/kg s.c., Table 1) of 1 h. The Tmax (time of maximum effect) ([1]; 60 μmol/kg s.c.) was 1 h, the “Reversal of mechanical allodynia” value ([1]; 120 μmol/kg s.c.) was 53 % of the baseline and the Tmax (time of maximum effect) ([1]; 120 μmol/kg s.c.) was 1 h. For the same molecule, the Anti-allodynic activity ([1]; 60 and 120 μmol/kg s.c.) was “Anti-allodynic activity”, the “Effect on mechanical allodynia” value ([1]; subcutaneous administration, maleate salt) was “significantly attenuated” and the Injection site finding ([3]; 120 μmol/kg s.c.) was “necrosis at site of injection”. The “Reaction on injection (s.c.)” value ([3]; 120 μmol/kg s.c.) was “vocalisation/struggle on injection” and the “Behaviour when returned to holding cages after testing” value ([3]; 60 and 120 μmol/kg group) was “hyperactive/excitable behaviour”.
